Patent US11185551B2, “Peripherally-restricted dual-acting kappa and delta opioid agonist for analgesia in pain states involving the inflammatory response” (Caventure Drug Discovery, Inc., priority 2017, dated 2021)

Assays:
[1] = tested on: SNL-induced mechanical hyperalgesia; experiment: Spinal nerve ligation (SNL) model for neuropathic pain in the rat (paw compression thresholds); type: in vivo, male Sprague-Dawley rats
Procedure: Following IACUC approval and acclimation, neuropathy was induced in 55 male, Sprague-Dawley rats by surgically ligating the 5th and 6th lumbar spinal nerves (L5 and L6), a procedure also known as spinal nerve ligation (SNL). Mechanical sensitivity was assessed via paw compression thresholds using a digital Randall-Selitto device. Thresholds were determined prior to surgery and 15 days post-surgery, prior to study article administration. At that time, 50 animals that met the inclusion criteria were assigned to 5 groups with 10 animals per group (Table 5). To further confirm the validity as a model for neuropathic pain, gabapentin was used as an active control.
(§1) Animals were administered a single dose of test or control compound on day 0 (i.e., 15 days after SNL) and thresholds were determined 1, 2, and 4 hours after compound administration. Response thresholds in test compound-treated animals were compared to those in vehicle-treated animals to determine the analgesic efficacy of the test compound. All behavioral evaluations were performed by a blinded observer.
Mechanical hyperalgesia was measured using a digital Randall-Selitto device (dRS; IITC Life Sciences©; Woodland Hills, Calif.) (see Randall, L. O., and J. J. Selitto. “A Method for Measurement of Analgesic Activity on Inflamed Tissue.” Arch. Int. Pharmcodyn. 11 (1957): 409-19). Animals were allowed to acclimate to the testing room for a minimum of 15 minutes before testing. Animals were placed in a restraint sling that suspends the animal, leaving the hind limbs available for testing. The stimulus was applied to the plantar surface of the hind paw by a cone-shaped tip and pressure was applied gradually over approximately 10 seconds. Paw compression threshold values were recorded at the first observed nocifensive behavior (vocalization, struggle, or withdrawal). One reading per paw was taken at each time point, and a maximum stimulus cutoff of 300 grams was used to prevent injury to the animal. The mean and standard error of the mean (SEM) were determined for ipsilateral and contralateral paws for each treatment group at each time point.
All testing was performed in a blinded manner, with all experimenters involved in the study being unaware of the group assignment of any animal they were testing.
Animals were assigned to treatment groups based on Day 0 pre-dosing dRS paw compression thresholds so that group means of the ipsilateral paw compression thresholds were approximately equal. Animals were ranked by ipsilateral paw compression threshold measurement from lowest to highest and treatments assigned randomly within stratified sub-groups according to the total number of treatment groups in the study.
The volume of test or control article injected was 5 mL/kg. The animals were dosed in sequence based on animal number, so that the distribution of treatment across a given set of animals was not predictable.

[2] = tested on: formalin-evoked spontaneous nociceptive behaviors; experiment: Formalin model of pain in mice; type: in vivo, C57BL6 mice
Procedure: The objective of this study was to evaluate the effects of Compound 1 and a peripherally-restricted kappa agonist (ICI204448) on formalin-evoked spontaneous nociceptive behaviors in mice. The study was performed by video recording of formalin-induced nociceptive behavior and then off-line scoring using a computer.
Subcutaneous plantar injection of formalin causes a bi-phasic nocifensive behavioral response in rodents. The early phase (phase 1) lasts for about 5-10 minutes, following which an interphase occurs without any discernible nociceptive reactions, after which the late phase (phase 2) nociceptive reaction ensues continuing from about 20-60 min following formalin injection. Thus, phase 2 of the formalin model is a model of continuously present, persistent pain, and is widely used for rapid screening of novel analgesic compounds. The model encompasses inflammatory, neurogenic and central mechanisms of nociception, and the late phase (phase 2), in particular, is considered as a pharmacodynamic surrogate of central sensitization.
In the present study, the effects of Compound 1 and ICI204448 were assessed from 0-5 minutes for the early phase (phase 1) and from 20-35 minutes for the late phase (phase 2) of formalin-induced nociceptive behavior.
Following IACUC approval and acclimation C57BL6 mice (Charles River Canada Inc.), 20-30 g, were randomly assigned into groups with 8 mice per group as provided in Table 1:
All animals were acclimated to the observation chamber for about 15 minutes immediately prior to formal in injection. […]
Following injection of the formalin all animals were returned immediately to the observation chamber and formalin-evoked spontaneous nociceptive behaviors in the mice were continuously recorded for 0-40 minutes using a commercial camcorder. […]
Scoring from the recorded video files were done off-line using a computer by a blinded observer who has been validated to score such nociceptive behaviors in rodents. The total (cumulative) time spent in a 5-minute bin was recorded using a stop-watch for the following nociceptive behaviors: biting and licking of the formalin-injected paw.
Effects of the ICI204448 or Compound 1 were assessed in the following time periods: 0-5 minutes for the early phase (phase 1) and 20-35 minutes for the late phase (phase 2).
Mice were injected with formalin in the hind paw after pretreatment with vehicle, high and low doses of a peripherally-restricted kappa opioid agonist (ICI204448) and high and low doses of the peripherally-restricted Compound 1. Pain was measured for 35 minutes after injection. Additionally, urine output was measured using metabolic cages in each group of mice. […]

[3] = tested on: CFA-induced mechanical hyperalgesia; experiment: CFA model of rheumatoid arthritis pain in rats (joint compression thresholds); type: in vivo, male Sprague-Dawley rats; settings: for improvement of compression thresholds vs vehicle: 30 mg/kg PO
Procedure: Following IACUC approval and acclimation, inflammatory arthritis pain was induced in 55 male, Sprague-Dawley rats by intracapsular injection of 50 μL of 100% complete Freund's adjuvant (CFA) into the tibio-tarsal joint of the left hind leg. Mechanical hyperalgesia was assessed via joint compression thresholds (JCTs), JCTs were determined prior to CFA injection and 14 days post-CFA, prior to study article administration. At that time, 50 animals that met the inclusion criterion were randomly assigned to 5 groups with 10 animals per group (Table 3). To further confirm the validity as a model for arthritic pain, the anti-inflammatory cyclooxygenase-2 inhibitor, celecoxib, was used as an active control.
as §1, with “14” for “15”, “administration of CFA)” for “SNL)”, “JCTs” for “Response thresholds”
Mechanical hyperalgesia was measured using a digital Randall-Selitto device (dRS; IITC Life Sciences©; Woodland Hills, Calif.; see Randall, L. O., and J. J. Selitto, “A Method for Measurement of Analgesic Activity on Inflamed Tissue.” Arch. Int. Pharmcodyn. 11 (1957): 409-19). Animals were allowed to acclimate to the testing room for a minimum of 15 minutes before testing. Animals were placed in a restraint sling that suspended the animal, leaving the hind limbs available for testing. The stimulus was applied to the ankle joint by a blunt tip and pressure was applied gradually over approximately 10 seconds. Joint compression threshold values were recorded at the first observed nocifensive behavior (vocalization, struggle, or withdrawal). One reading per joint was taken at each time point, and a maximum stimulus cutoff of 500 grams was used to prevent injury to the animal. The mean and standard error of the mean (SEM) were determined for ipsilateral and contralateral joints for each treatment group at each time point.
All testing was performed in a blinded manner, with all experimenters involved in the study being unaware of the group assignment of any animal they were testing. Animals were assigned to treatment groups based on Day 0 pre-dosing JCTs so that group means of the ipsilateral JCTs were approximately equal. Animals were ranked by ipsilateral JCT and treatments assigned randomly within stratified sub-groups according to the total number of treatment groups in the study. The volume of test or control article injected was 5 mL/kg. The animals were dosed in sequence based on animal number so that the distribution of treatment across a given set of animals was not predictable.

[4] = tested on: osteolytic bone cancer pain induced by MRMT-1 inoculation; experiment: MRMT-1 model of osteolytic bone cancer pain in the rat (percent weight bearing score); type: in vivo, female Sprague-Dawley rats
Procedure: Osteolytic bone cancer was produced by an injection of 3000 mammary gland carcinoma cells (MRMT-1) into the intramedullary space of the tibia. Animals received either vehicle or Compound 1 (10 mg/kg) intraperitoneally on Day 0. Morphine (6 mg/kg) served as the positive control for this study and was administered via subcutaneous injection. Bone cancer pain was assessed by measuring hind limb percent weight bearing scores (percent WBS) prior to inoculation (study day −21), and prior to administration (BL), 1, 2, and 4 hours after administration on Day 0.
Hind limb weight bearing scores (WBS) are measured using a Linton Incapacitance Tester (Stoelting Co.©, Wood Dale, Ill.; see Medhurst, S. J., K. Walker, M. Bowes, B. L. Kidd, M. Glatt, M. Muller, M. Hattenberger, J. Vaxelaire, T. O'Reilly, G. Wotherspoon, J. Winter, J. Green, and L. Urban. “A Rat Model of Bone Cancer Pain.” Pain 96 (2002): 129-40). Animals were allowed to acclimate to the testing room for a minimum of 15 minutes before testing. Animals are placed in an acrylic test chamber. When the animal is in the correct position in the test chamber an evaluation of force was taken, with the evaluation measuring the average force exerted individually by each hind paw over a three second interval. Three evaluations of force per animal are taken at each time point. The percent WBS for the injured leg is calculated for each evaluation of force using the following formula: […]
The mean of the 3% WBS values is taken as the % WBS for that time point. The mean and standard error of the mean (SEM) are determined for each treatment group at each time point.
Dosing: The volume of test or negative control article injected was 5 mL/kg via intraperitoneal injection or 2 mL/kg via subcutaneous injection for morphine. The animals were dosed in sequence based on animal number, so that the distribution of treatment across a given set of animals was not predictable (Table 7).

SMILES: NCC1(CC(=O)O)CCCCC1 [Gabapentin, reference compound]
- reversal of SNL-induced mechanical hyperalgesia ([1]; 100 mg/kg IP, 1, 2, and 4-hours): significantly reversed SNL-induced mechanical hyperalgesia

SMILES: CC(C)C[C@H]1CN2C(=CC3=NC[C@H](C(C)C)N3C[C@@H]2Cc2ccc(O)cc2)N1CCc1ccccc1 [Compound 1, 4-(((2S,5S,8S)-2-isobutyl-8-isopropyl-1-phenethyl-2,3,5,6,8,9-hexahydro-1H-diimidazo[1,2-d:2′,1′-g][1,4]diazepin-5-yl)methyl)phenol]
- pain behaviors, effect of low dose ([2]; 1 mg/kg IP, phase 2, compared with ICI204448 10 mg/kg): the same effect as a high dose of ICI204448
- pain response, effect of high dose ([2]; 10 mg/kg IP, phase 2): complete elimination of the pain response
- time spent on pain (nociceptive) behaviors vs ICI204448 ([2]; 30-35 minutes, Compound 1 dose less than 10% of ICI204448 on a molar basis): at least as effective as ICI204448
- pain behaviors (biting and licking of formalin-injected paw) ([2]; IP 30 min before formalin, 20-25, 25-30, 30-35 minutes (phase 2), compared with vehicle and ICI204448): reduced pain behaviors
- reversal of mechanical hyperalgesia (JCT) ([3]; 1 mg/kg IP, 2-hour and 4-hour): significantly reversed mechanical hyperalgesia
- reversal of mechanical hyperalgesia (JCT) ([3]; 5 mg/kg IP, 2-hour and 4-hour): significantly reversed mechanical hyperalgesia
- reversal of mechanical hyperalgesia (JCT) ([3]; 10 mg/kg IP, 1, 2, and 4 hours post dose): significantly reversed mechanical hyperalgesia
- reversal in mechanical hyperalgesia compared with active control ([3]; Compound 1 IP vs celecoxib 30 mg/kg PO): comparable to the active control, celecoxib
- reversal of SNL-induced mechanical hyperalgesia ([1]; 1 mg/kg IP, any time point tested (1, 2, 4 hours)): did not significantly reverse SNL-induced mechanical hyperalgesia
- reversal of SNL-induced mechanical hyperalgesia ([1]; 5 mg/kg IP, 1-hour): did not significantly reverse SNL-induced mechanical hyperalgesia
- reversal of SNL-induced mechanical hyperalgesia ([1]; 5 mg/kg IP, 2-hour and 4-hour): did significantly reverse SNL-induced mechanical hyperalgesia
- reversal of SNL-induced mechanical hyperalgesia ([1]; 10 mg/kg IP, 1-hour): did not significantly reverse SNL-induced mechanical hyperalgesia
- reversal of SNL-induced mechanical hyperalgesia ([1]; 10 mg/kg IP, 2-hour and 4-hour): did significantly reverse SNL-induced mechanical hyperalgesia
- reversal of mechanical hyperalgesia compared with active control ([1]; Compound 1 5 mg/kg and 10 mg/kg vs gabapentin 100 mg/kg): did not differ significantly from the active control, gabapentin
- reversal of hind limb weight bearing asymmetry vs pre-dosing baseline ([4]; 10 mg/kg IP, 4 hours): significant reversal of hind limb weight bearing asymmetry

SMILES: CN1CC[C@]23c4c5ccc(O)c4O[C@H]2[C@@H](O)C=C[C@H]3[C@H]1C5 [Morphine]
- reversal of hind limb weight bearing asymmetry vs pre-dosing baseline ([4]; 6 mg/kg subcutaneous, 1 and 2 hours): time-dependent reversal of hind limb weight bearing asymmetry
- improvement in weight-bearing ([4]; 6 mg/kg subcutaneous, 4-hours): did not produce significant improvement

SMILES: Cc1ccc(-c2cc(C(F)(F)F)nn2-c2ccc(S(N)(=O)=O)cc2)cc1 [Celecoxib, reference compound]
- improvement of compression thresholds vs vehicle ([3]; 1-hour): did not significantly improve thresholds
- improvement of compression thresholds vs vehicle ([3]; 2-hour and 4-hour): did show improvement compared to vehicle
